How the values were obtained:
Experiment in all cases: relative viability (nuclei count vs DMSO), 5 days (fraction); higher = more cells survive
NCI-H1793 = tested on: NCI-H1793
Method in brief: (§1)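 Values are medians from duplicate plates. Each reflects relative viability, defined as the nuclei count of treated wells over that of vehicle wells. Lung cancer cell lines in 1536-well plates were pin-tool dosed one day after seeding with one drug alone or with a fixed anchor-drug dose plus five library-drug doses (not always all listed) in √10 steps, then fixed, stained and imaged at 4× after 5 days.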

LCLC-97TM1 = tested on: LCLC-97TM1
Method in brief: as §1

NCI-H1993 = tested on: NCI-H1993
Method in brief: as §1

PC-3 [JPC-3] = tested on: PC-3 [JPC-3]
Method in brief: as §1

NCI-H2009 = tested on: NCI-H2009
Method in brief: as §1

NCI-H520 = tested on: NCI-H520
Method in brief: as §1

NCI-H1755 = tested on: NCI-H1755
Method in brief: as §1

NCI-H647 = tested on: NCI-H647
Method in brief: as §1

NCI-H460 = tested on: NCI-H460
Method in brief: as §1

SW 1573 = tested on: SW 1573
Method in brief: as §1

SK-LU-1 = tested on: SK-LU-1
Method in brief: as §1

NCI-H1944 = tested on: NCI-H1944
Method in brief: as §1

ABC-1 = tested on: ABC-1
Method in brief: as §1

EMC-BAC-2 = tested on: EMC-BAC-2
Method in brief: as §1

NCI-H441 = tested on: NCI-H441
Method in brief: as §1

NCI-H2126 = tested on: NCI-H2126
Method in brief: as §1

NCI-H2347 = tested on: NCI-H2347
Method in brief: as §1

PC-14 = tested on: PC-14
Method in brief: as §1

NCI-H1666 = tested on: NCI-H1666
Method in brief: as §1

NCI-H2170 = tested on: NCI-H2170
Method in brief: as §1

NCI-H1975 = tested on: NCI-H1975
Method in brief: as §1

NCI-H1355 = tested on: NCI-H1355
Method in brief: as §1

NCI-H727 = tested on: NCI-H727
Method in brief: as §1

O=c1[nH]c2ccccc2n1C1CCN(CCCC(c2ccc(F)cc2)c2ccc(F)cc2)CC1 [Pimozide] + CS(=O)(=O)N1CCN(Cc2cc3nc(-c4cccc5[nH]ncc45)nc(N4CCOCC4)c3s2)CC1 [Pictilisib] (partner 1 µM)
relative viability (NCI-H1793; first compound 0.08 µM): 0.296
relative viability (NCI-H1793; first compound 0.253 µM): 0.302
relative viability (NCI-H1793; first compound 0.8 µM): 0.311
relative viability (NCI-H1793; first compound 2.53 µM): 0.357
relative viability (NCI-H1793; first compound 8 µM): 0.275
relative viability (LCLC-97TM1; first compound 0.08 µM): 0.194
relative viability (LCLC-97TM1; first compound 0.253 µM): 0.183
relative viability (LCLC-97TM1; first compound 0.8 µM): 0.225
relative viability (LCLC-97TM1; first compound 2.53 µM): 0.18
relative viability (LCLC-97TM1; first compound 8 µM): 0.119
relative viability (NCI-H1993; first compound 0.08 µM): 0.751
relative viability (NCI-H1993; first compound 0.253 µM): 0.902
relative viability (NCI-H1993; first compound 0.8 µM): 0.778
relative viability (NCI-H1993; first compound 2.53 µM): 0.91
relative viability (NCI-H1993; first compound 8 µM): 0.846
relative viability (PC-3 [JPC-3]; first compound 0.253 µM): 0.695
relative viability (PC-3 [JPC-3]; first compound 0.8 µM): 0.654
relative viability (PC-3 [JPC-3]; first compound 2.53 µM): 0.698
relative viability (PC-3 [JPC-3]; first compound 8 µM): 0.686
relative viability (NCI-H2009; first compound 0.08 µM): 0.853
relative viability (NCI-H2009; first compound 0.253 µM): 0.923
relative viability (NCI-H2009; first compound 0.8 µM): 0.786
relative viability (NCI-H2009; first compound 2.53 µM): 0.769
relative viability (NCI-H2009; first compound 8 µM): 0.575
relative viability (NCI-H520; first compound 0.08 µM): 0.294
relative viability (NCI-H520; first compound 0.253 µM): 0.337
relative viability (NCI-H520; first compound 0.8 µM): 0.248
relative viability (NCI-H520; first compound 2.53 µM): 0.256
relative viability (NCI-H520; first compound 8 µM): 0.259
relative viability (NCI-H1755; first compound 0.08 µM): 0.438
relative viability (NCI-H1755; first compound 0.253 µM): 0.441
relative viability (NCI-H1755; first compound 0.8 µM): 0.418
relative viability (NCI-H1755; first compound 2.53 µM): 0.368
relative viability (NCI-H1755; first compound 8 µM): 0.307
relative viability (NCI-H647; first compound 0.08 µM): 0.389
relative viability (NCI-H647; first compound 0.253 µM): 0.39
relative viability (NCI-H647; first compound 0.8 µM): 0.448
relative viability (NCI-H647; first compound 2.53 µM): 0.383
relative viability (NCI-H647; first compound 8 µM): 0.334
relative viability (NCI-H460; first compound 0.08 µM): 0.236
relative viability (NCI-H460; first compound 0.253 µM): 0.385
relative viability (NCI-H460; first compound 0.8 µM): 0.386
relative viability (NCI-H460; first compound 2.53 µM): 0.353
relative viability (NCI-H460; first compound 8 µM): 0.366
relative viability (SW 1573; first compound 0.08 µM): 0.534
relative viability (SW 1573; first compound 0.253 µM): 0.462
relative viability (SW 1573; first compound 0.8 µM): 0.47
relative viability (SW 1573; first compound 2.53 µM): 0.449
relative viability (SW 1573; first compound 8 µM): 0.416
relative viability (SK-LU-1; first compound 0.08 µM): 0.643
relative viability (SK-LU-1; first compound 0.253 µM): 0.566
relative viability (SK-LU-1; first compound 0.8 µM): 0.551
relative viability (SK-LU-1; first compound 2.53 µM): 0.436
relative viability (SK-LU-1; first compound 8 µM): 0.469
relative viability (NCI-H1944; first compound 0.08 µM): 0.331
relative viability (NCI-H1944; first compound 0.253 µM): 0.337
relative viability (NCI-H1944; first compound 0.8 µM): 0.325
relative viability (NCI-H1944; first compound 2.53 µM): 0.35
relative viability (NCI-H1944; first compound 8 µM): 0.33
relative viability (ABC-1; first compound 0.08 µM): 0.596
relative viability (ABC-1; first compound 0.253 µM): 0.84
relative viability (ABC-1; first compound 0.8 µM): 0.743
relative viability (ABC-1; first compound 2.53 µM): 0.589
relative viability (ABC-1; first compound 8 µM): 0.474
relative viability (EMC-BAC-2; first compound 0.08 µM): 0.486
relative viability (EMC-BAC-2; first compound 0.253 µM): 0.51
relative viability (EMC-BAC-2; first compound 0.8 µM): 0.549
relative viability (EMC-BAC-2; first compound 2.53 µM): 0.532
relative viability (EMC-BAC-2; first compound 8 µM): 0.54
relative viability (NCI-H441; first compound 0.08 µM): 0.593
relative viability (NCI-H441; first compound 0.253 µM): 0.445
relative viability (NCI-H441; first compound 0.8 µM): 0.491
relative viability (NCI-H441; first compound 2.53 µM): 0.447
relative viability (NCI-H441; first compound 8 µM): 0.344
relative viability (NCI-H2126; first compound 0.08 µM): 0.437
relative viability (NCI-H2126; first compound 0.253 µM): 0.468
relative viability (NCI-H2126; first compound 0.8 µM): 0.512
relative viability (NCI-H2126; first compound 2.53 µM): 0.499
relative viability (NCI-H2126; first compound 8 µM): 0.539
relative viability (NCI-H2347; first compound 0.08 µM): 0.611
relative viability (NCI-H2347; first compound 0.253 µM): 0.599
relative viability (NCI-H2347; first compound 0.8 µM): 0.601
relative viability (NCI-H2347; first compound 2.53 µM): 0.605
relative viability (NCI-H2347; first compound 8 µM): 0.605
relative viability (PC-14; first compound 0.253 µM): 0.631
relative viability (PC-14; first compound 0.8 µM): 0.738
relative viability (PC-14; first compound 2.53 µM): 0.716
relative viability (PC-14; first compound 8 µM): 0.634
relative viability (NCI-H1666; first compound 0.08 µM): 0.323
relative viability (NCI-H1666; first compound 0.253 µM): 0.512
relative viability (NCI-H1666; first compound 0.8 µM): 0.439
relative viability (NCI-H1666; first compound 2.53 µM): 0.385
relative viability (NCI-H1666; first compound 8 µM): 0.465
relative viability (NCI-H2170; first compound 0.08 µM): 0.308
relative viability (NCI-H2170; first compound 0.253 µM): 0.382
relative viability (NCI-H2170; first compound 0.8 µM): 0.299
relative viability (NCI-H2170; first compound 2.53 µM): 0.326
relative viability (NCI-H2170; first compound 8 µM): 0.236
relative viability (NCI-H1975; first compound 0.08 µM): 0.282
relative viability (NCI-H1975; first compound 0.253 µM): 0.262
relative viability (NCI-H1975; first compound 0.8 µM): 0.297
relative viability (NCI-H1975; first compound 2.53 µM): 0.28
relative viability (NCI-H1975; first compound 8 µM): 0.202
relative viability (NCI-H1355; first compound 0.08 µM): 0.371
relative viability (NCI-H1355; first compound 0.253 µM): 0.417
relative viability (NCI-H1355; first compound 0.8 µM): 0.436
relative viability (NCI-H1355; first compound 2.53 µM): 0.466
relative viability (NCI-H1355; first compound 8 µM): 0.357
relative viability (NCI-H727; first compound 0.08 µM): 0.367
relative viability (NCI-H727; first compound 0.253 µM): 0.357
relative viability (NCI-H727; first compound 0.8 µM): 0.389
relative viability (NCI-H727; first compound 2.53 µM): 0.308
relative viability (NCI-H727; first compound 8 µM): 0.434

— the supplement of paper PMC10307832
